Experimental data: patent US12258574B2, “Methods and compositions for transducing lymphocytes and regulating the activity thereof” (Exuma Biotech Corp., priority 2016, dated 2025)
Structures can show the parent of a compound that is named as a salt.

Key:
[1] = Deep sequencing and sequence family analysis of parallel assessment populations, acyclovir candidates; type: binding; conditions: for presence in the negative population: sequenced final generation library responding to 1X selection buffer; for presence in the counter-targets population: sequenced final generation library responding to counter-targets; for Enrichment rate: ratio between final positive and penultimate positive population
Text: The Illumina MiSeq system (San Diego, CA) was implemented to sequence the aptamer libraries after parallel assessment using a single-end read technique. Deep sequencing and subsequent data analysis reduces the large number of screening rounds traditional SELEX requires, which may introduce error and bias due to the screening process (Schütze et al., 2011). Five samples were sequenced: the final generation library that responded to acyclovir, the final generation library that responded to the counter-targets, the final generation library that responded to 1× selection buffer (negative condition), the penultimate generation library that responded to acyclovir, and the final generation library that responded to the additional target of interest, penciclovir. From these sets of data, sequence families were constructed at 95% homology (sequence similarity considering mutations, deletions, and insertion) for aptamer candidate identification. There were 1,711,535 raw sequences (124,600 unique sequences) from the library that responded to acyclovir and 2,074,832 raw sequences (110,149 unique sequences) from the library that responded to penciclovir.
Sequence family construction focused primarily on sequence similarity. This means that a sequence's frequency in the positive target population was factored in, but greater emphasis was placed on the degree of variation between similar sequences, with 95% homology being the minimum requirement (100% match over the entire sequence is not necessary to join a family, up to 2 bases can be mismatched, inserted, or deleted). One would therefore expect families with the greatest number of members to rank highly as aptamer candidates. […] Under these conditions, several candidate families appeared to be strong candidates for binding acyclovir (Table 2) and penciclovir.

CHO-Target 1 cells = experiment: pH shift cytotoxicity assay / HCl switch RTCA killing assay (xCELLigence); type: cell-based
Protocol: The cytotoxic activity of transduced T cells before and after pH change by addition of NaHCO3 or NaOH was measured using the xCELLigence System. Briefly, one day before the experiment, target cells (CHO cells stably transfected with a construct to express Target 1 on the cell surface (CHO-Target 1 cells)), were seeded into a 96-well E-plate (ACEA; San Diego, CA) at 10,000 cells/well with X-VIVO 15 media containing 40 mM HEPES and 40 mM PIPES, pH 6.7. Cryopreserved effector cells previously transduced with either lentiviral particles containing the nucleic acid encoding T1B or C1 (T1BVP and C1VP, respectively) produced as discussed above, were thawed and cultured for two days in X-VIVO 15 media containing 100 IU/mL of IL-2 (R&D Systems, Minneapolis, MN). On the day of the experiment, cells transduced with T1BVP or C1VP were washed and resuspended in X-VIVO 15 media containing 40 mM HEPES and 40 mM PIPES, pH 6.7 and then added into the experimental wells at effector cell/target cell ratios (E/T) of 1:1.
Impedance readings measured on the xCELLigence System (ACEA) were taken every 5 minutes and reported as the Cell Index (CI) to quantitate cell confluency as a measure of cell proliferation/cell lysis. Approximately 3 hours after effector cell addition, 8 μl of 7.5% NaHCO3 or 14 μl of 0.5 M NaOH was added into the wells with X-VIVO 15 media containing 40 mM HEPES and 40 mM PIPES, pH 6.7 to increase the pH from 6.7 to 7.4. Impedance readings were continued for approximately 20 hours after effector cell addition. Percentage of specific cytolysis was calculated as follows ((CI Target+C1VP transduced effector T cells)−(CI Target+T1BVP transduced effector T cells))/(CI Target+C1VP transduced effector T cells)×100.
The cytotoxic activity of transduced T cells before and after pH change by addition of HCl was measured using the xCELLigence System. Briefly, one day before the experiment, CHO-Target 1 cells were seeded into a 96 well E-plate at 10,000 cells/well with X-VIVO 15 media containing 40 mM HEPES and 40 mM PIPES, pH 7.4. Cryopreserved effector cells previously transduced with either C1VP or T1BVP, were thawed and cultured for two days in X-VIVO 15 media containing 100 IU/mL of IL-2. On the day of the experiment, cells transduced with T1BVP or C1VP were washed and resuspended in X-VIVO 15 media containing 40 mM HEPES and 40 mM PIPES, pH 7.4 and then added into experimental wells at effector cell/target cell ratios (E/T) of 1:1.
Impedance readings were taken every 5 minutes and reported as the Cell Index (CI). […] Impedance readings were continued for approximately 20 hours after effector cell addition. Percentage of specific cytolysis was calculated as follows ((CI Target+C1VP transduced effector T cells)−(CI Target+T1BVP transduced effector T cells))/(CI Target C1VP)×100.

deoxyguanosine switch = experiment: Tests of natural deoxyguanosine riboswitch with nucleoside analogues; type: binding
Text: This example provides a method to screen libraries based on natural structural riboswitches that bind guanosine and deoxyguanosine. These riboswitches were used as scaffolds to develop biased libraries for the selection of aptamers that bind specifically to a ligand nucleoside analogue. Previously, isothermal titration calorimetry has been used to show these natural riboswitches bind to their native ligands. […] The single-stranded regions of the riboswitch were targeted for mutation and variant sequences that specifically respond to acyclovir or penciclovir were selected for.

[2] = Qualitative PAGE assessment of selected aptamers after graphene oxide selection; type: binding; conditions: 0.5 mM MgCl2, 37° C., 0.5 μM aptamer, 1 μM target or counter-targets
Protocol: Qualitative PAGE assessment of selected aptamers was performed. Individually synthesized and transcribed aptamers were subjected to selection on Graphene Oxide (GrO) under physiological Mg++ (0.5 mM) and elution with either acyclovir (+) or counter-targets (×). The specifically eluted aptamer fractions for each sample were subjected to PAGE for analysis.
Final library concentration was 0.5 μM, target/counter-targets concentration was 1 μM (incubation volume was 200 μl).
After target/counter-target incubation, 250 μg of GrO (Angstrom Materials (Dayton, OH) was added to adsorb unbound candidate (10-minute incubation at 37° C.).
Samples were centrifuged for 5 minutes at 7,000×g. […] Running buffer was 1×TBE (supplier: Amresco/VWR; catalog #0658-20L, diluted using DI water). DNA ladder was 20/100 DNA ladder (IDT). Gels stained with Gel Star (Lonza, 50535) and imaged on a blue light transilluminator.

[3] = Thermal denaturation by differential scanning calorimetry (DSC)
Protocol: At least 10 nmole of each candidate was lyophilized, and resuspended in 1× Binding Buffer (50 mM HEPES, 100 mM KCl, 0.5 mM MgCl2, pH 7.3) on the day of binding assessment.
All analyses were conducted in 1× Binding Buffer and all water used was DEPC-treated. All analytes were resuspended first in DEPC-treated water then diluted to their final listed concentration in 1× Binding Buffer. Prior to loading of the DSC (GE Healthcare MicroCal VP-DSC), the samples were degassed at 25° C. for 10 minutes.

**Q.** Which “presence in the negative population” value [1] does the source give for “F1A-961: acyclovir aptamer candidate; SEQ ID NO:220 (ACACCGTAGCATAATGGGCTACTGCCGCCGTCGACCTTTTGGAGACT; RNA riboswitch aptamer, listed DNA covers non-stem region only, further chemistry not given here) [Candidate F1A-961]” here?
**A.** performing less well

**Q.** And the “presence in the counter-targets population” value [1]?
**A.** show up to a small degree

**Q.** Which Enrichment rate [1] does the source give for “F1A-582: acyclovir aptamer candidate, most prevalent sequence of family 582; SEQ ID NO:108 (ACAGCTTAGCGTAATGGCTACTGACGCCGTCCAAACCTATTTACAGACT; RNA riboswitch aptamer, listed DNA covers non-stem region only, further chemistry not given here) [Candidate F1A-582]” here?
**A.** greatest enrichment rate

**Q.** What about the “presence in the negative population” value [1] of the same molecule?
**A.** did not perform well

**Q.** What about the “presence in the counter-targets population” value [1] of the same molecule?
**A.** did not perform well

**Q.** For [Na+].[OH-] [NaOH], which “effect on cytotoxic activity of MRB-CAR T cells of raising media pH from 6.7 to 7.4” value (CHO-Target 1 cells; added about 3 hours after effector cells, E/T 1:1) is on record?
**A.** inhibited the cytotoxic activity

**Q.** Which “interaction with deoxyguanosine switch” value (deoxyguanosine switch) does the source give for Nc1nc2c(ncn2CCC(CO)CO)c(=O)[nH]1 [penciclovir] here?
**A.** interacted weakly

**Q.** Which “response in qualitative PAGE assessment (elution from GrO with acyclovir vs counter-targets)” value [2] does the source give for “F1A-795: acyclovir aptamer candidate, most prevalent sequence of family 795; SEQ ID NO:164 (ACAGCGAAGCATAATGGCTACTGACGCCCTCAAACCCTATTTGCAGACT; RNA riboswitch aptamer, listed DNA covers non-stem region only, further chemistry not given here) [Candidate F1A-795]” here?
**A.** selective positive response

**Q.** And the thermal denaturation transition ([3]; absence of acyclovir, 7.2 μM F1A-795, 1X Binding Buffer)?
**A.** about 60 °C

**Q.** And the “binding of acyclovir to the aptamer domain” value ([3]; concluded from stabilizing effect in DSC)?
**A.** bound by acyclovir

**Q.** What about the “presence in the negative population” value [1] of the same molecule?
**A.** performing less well

**Q.** And the “presence in the counter-targets population” value [1]?
**A.** not detected

**Q.** Which “interaction with deoxyguanosine switch” value (deoxyguanosine switch) does the source give for Nc1nc2c(ncn2COCCO)c(=O)[nH]1 [acyclovir] here?
**A.** interacted weakly

**Q.** For “F1A-935: acyclovir aptamer candidate, most prevalent sequence of family 935; SEQ ID NO:183 (ACAGGGTAGCATAATGGGCTACTTGACGCCTTCACCTATTTGTAGACT; RNA riboswitch aptamer, listed DNA covers non-stem region only, further chemistry not given here) [Candidate F1A-935]”, which Enrichment rate [1] is on record?
**A.** performing adequately

**Q.** And the “presence in the negative population” value [1]?
**A.** not found

**Q.** What about the “presence in the counter-targets population” value [1] of the same molecule?
**A.** not detected

**Q.** With “F1A-946: acyclovir aptamer candidate, most prevalent sequence of family 946; SEQ ID NO:198 (ACAGCGTAGCATAATGGGCTGCAGACGCCGTCAAACCTATTTGCAGACT; RNA riboswitch aptamer, listed DNA covers non-stem region only, further chemistry not given here) [Candidate F1A-946]” as the molecule, how does the “response in qualitative PAGE assessment (elution from GrO with acyclovir vs counter-targets)” value [2] read?
**A.** selective positive response

**Q.** And the Enrichment rate [1]?
**A.** performing adequately

**Q.** And the “presence in the negative population” value [1]?
**A.** not found

**Q.** And the “presence in the counter-targets population” value [1]?
**A.** not detected

**Q.** For Cl [HCl], which “effect on cytotoxic activity of MRB-CAR T cells of switching media pH from 7.4 to 6.7” value (CHO-Target 1 cells; 8 μl of 1 M HCl about 3 hours after effector cells, E/T 1:1) is on record?
**A.** increased

**Q.** For “F1A-769: acyclovir aptamer candidate, most prevalent sequence of family 769; SEQ ID NO:147 (ACAGGTCAGCATAATGTGCTAGTGCGCCTTCAAACCTATTTAGAGACT; RNA riboswitch aptamer, listed DNA covers non-stem region only, further chemistry not given here) [Candidate F1A-769]”, which “response in qualitative PAGE assessment (elution from GrO with acyclovir vs counter-targets)” value [2] is on record?
**A.** selective positive response

**Q.** What about the Enrichment rate [1] of the same molecule?
**A.** performing adequately

**Q.** And the “presence in the negative population” value [1]?
**A.** minimally detected

**Q.** For “F1A-996: acyclovir aptamer candidate; SEQ ID NO:221 (ACAGGGTAGCATAATGGCTTAGGACGCCTTCAAACCTATCAAGACT; RNA riboswitch aptamer, listed DNA covers non-stem region only, further chemistry not given here) [Candidate F1A-996]”, which “response in qualitative PAGE assessment (elution from GrO with acyclovir vs counter-targets)” value [2] is on record?
**A.** selective positive response

**Q.** And the “presence in the negative population” value [1]?
**A.** performing less well

**Q.** What about the “presence in the counter-targets population” value [1] of the same molecule?
**A.** show up to a small degree

B1: T1B: an anti-Target 1 MRB-CAR from the series of candidate MRB-CARs in Example 3 (protein)
chain: EVQLVQSGAEVKKPGATVKISCKVSGYSFWGATMNWIRQPPGKGLEWIGLIKPSNGGTSYNQKFKGRVTISADKSISTAYLQWSSLKASDTAMYYCAHGHYESYEAMDYWGQGTLVTVSSGGGGSGGGGSGGGGSDIQMTQSPSSLSASVGDRVTITCKASQDVVSAVAWYQQKPGQAPRLLIYWQDTRHTGVPSRFSGSGSGTEFTLTISSLQPDDFATYYCQEHFSPPLTFGQGTKVEIKFWVLVVVGGVLACYSLLVTVAFIIFWVRSKRSRLLHSDYMNMTPRRPGPTRKHYQAYAAARDFAAYRSRVKFSRSADAPAYQQGQNQLYNELNLGRREEYDVLDKRRGRDPEMGGKPRRKNPQEGLYNELQKDKMAEAYSEIGMKGERRRGKGHDGLYQGLSTATKDTYDALHMQALPPR
**Q.** Which “cytotoxic activity on CHO-Target 1 cells” value (CHO-Target 1 cells; pH 7.4, E/T 1:1) does the source give for B1 here?
**A.** low
